Experimental findings from patent US8551999B2, “Heterocyclic compound and pharmaceutical composition thereof” (Otsuka Pharmaceutical Co., Ltd., priority 2007, dated 2013) are described below.

The term melting point denotes the temperature of the solid-liquid transition.

Turning to `COc1ccc(CN2CCN(C(=O)c3cc4cc(Oc5ccc(N(C)C(=O)c6ccc(OC(F)(F)F)cc6)cn5)ccc4n3C)CC2)cc1.O=C(O)/C=C\C(=O)O` [Example 18, N-(6-{2-[4-(4-Methoxybenzyl)piperazine-1-carbonyl]-1-methyl-1H-indol-5-yloxy}pyridin-3-yl)-N-methyl-4-trifluoromethoxybenzamide maleate], the melting point lay within 147 to 148 °C. `Br.COc1ccc(CN2CCN(C(=O)c3cc4cc(Oc5ccc(NC(=O)c6ccc(C(F)(F)F)c(C)c6)cn5)ccc4n3C)CC2)cc1` [Example 19, N-(6-{2-[4-(4-Methoxybenzyl)piperazine-1-carbonyl]-1-methyl-1H-indol-5-yloxy}pyridin-3-yl)-3-methyl-4-trifluoromethylbenzamide hydrobromide]: the melting point fell in the range of 188 to 191 °C. Then `Br.COc1ccc(CN2CCN(C(=O)c3cc4cc(Oc5ccc(N(C)C(=O)c6ccc(C(F)(F)F)c(C)c6)cn5)ccc4n3C)CC2)cc1` [Example 20, N-(6-{2-[4-(4-Methoxybenzyl)piperazine-1-carbonyl]-1-methyl-1H-indol-5-yloxy}pyridin-3-yl)-3,N-dimethyl-4-trifluoromethyl-benzamide hydrobromide], with 199 to 202 °C; and `COc1ccc(CN2CCN(C(=O)c3cc4cc(Oc5ccc(CNC(=O)c6ccc(C(F)(F)F)cn6)cn5)ccc4n3C)CC2)cc1.O=C(O)C(=O)O.O=C(O)C(=O)O` [Example 21, 5-Trifluoromethylpyridine-2-carboxylic acid (6-{2-[4-(4-methoxy-benzyl)piperazine-1-carbonyl]-1-methyl-1H-indol-5-yloxy}pyridin-3-yl)methylamide dioxalate], with 152 to 154 °C; and `Br.Cc1ccc(C(=O)N(C)c2ccc(Oc3ccc4cc(C(=O)N5CCN(Cc6ccc(OCC(F)(F)F)cc6)CC5)n(C)c4c3)nc2)cc1` [Example 23, 4,N-Dimethyl-N-[6-(1-methyl-2-{4-[4-(2,2,2-trifluoroethoxy)-benzyl]piperazine-1-carbonyl}-1H-indol-6-yloxy)pyridin-3-yl]-benzamide hydrobromide], with 226.1 to 227.3 °C. Turning to `Br.CCN(C(=O)c1ccc(C(F)(F)F)cc1)c1ccc(Oc2ccc3cc(C(=O)N4CCN(Cc5ccc(OCC(F)(F)F)cc5)CC4)n(C)c3c2)nc1` [Example 26, N-Ethyl-N-[6-(1-methyl-2-{4-[4-(2,2,2-trifluoroethoxy)benzyl]-piperazine-1-carbonyl}-1H-indol-6-yloxy)pyridin-3-yl]-4-tri-fluoromethylbenzamide hydrobromide], the melting point was 189.8 to 192.8 °C. The molecule `Br.CN(c1ccc(Oc2ccc3cc(C(=O)N4CCN(Cc5ccc(OCC(F)(F)F)cc5)CC4)n(C)c3c2)nc1)S(=O)(=O)c1ccccc1` [Example 30, N-Methyl-N-[6-(1-methyl-2-{4-[4-(2,2,2-trifluoroethoxy)benzyl]-piperazine-1-carbonyl}-1H-indol-6-yloxy)pyridin-3-yl]benzene-sulfonamide hydrobromide] registered a melting point of 234.6 to 235.2 °C.

Take `CCCOc1ccc(CN2CCN(C(=O)c3cc4ccc(Oc5ccc(N(C)S(=O)(=O)c6ccc(C)cc6)cn5)cc4n3C)CC2)cc1` [Example 32, 4,N-Dimethyl-N-(6-{1-methyl-2-[4-(4-propoxybenzyl)piperazine-1-carbonyl]-1H-indol-6-yloxy}pyridin-3-yl)benzenesulfonamide]: the melting point is 135.9 to 136.8 °C. Turning to `CCCOc1ccc(CN2CCN(C(=O)c3cc4ccc(Oc5ccc(N(C)S(=O)(=O)c6ccc(Cl)c(Cl)c6)cn5)cc4n3C)CC2)cc1` [Example 33, 3,4-Dichloro-N-methyl-N-(6-{1-methyl-2-[4-(4-propoxybenzyl)-piperazine-1-carbonyl]-1H-indol-6-yloxy}pyridin-3-yl)-benzenesulfonamide], the melting point was 231.7 to 235 °C (dec.). The molecule `CN(c1ccc(Oc2ccc3cc(C(=O)N4CCN(Cc5ccc(OCC(F)(F)F)cc5)CC4)[nH]c3c2)nc1)S(=O)(=O)c1ccc(C(F)(F)F)cc1` [Example 39, N-Methyl-N-[6-(2-{4-[4-(2,2,2-trifluoroethoxy)benzyl]piperazine-1-carbonyl}-1H-indol-6-yloxy)pyridin-3-yl]-4-trifluoromethyl-benzenesulfonamide] came in with a melting point of 200.1 to 200.2 °C. `CC(C)Oc1ccc(CN2CCN(C(=O)c3cc4ccc(Oc5ncc(N(C)S(=O)(=O)c6ccc(C(F)(F)F)cc6)cn5)cc4n3C)CC2)cc1` [Example 42, N-(2-{2-[4-(4-Isopropoxybenzyl)piperazine-1-carbonyl]-1-methyl-1H-indol-6-yloxy}pyrimidin-5-yl)-N-methyl-4-trifluoromethyl-benzenesulfonamide] yielded a melting point of 186.6 to 187.3 °C. The molecule `Cc1ccc(S(=O)(=O)N(C)c2cnc(Oc3ccc4cc(C(=O)N5CCN(Cc6ccc(OC(C)C)cc6)CC5)n(C)c4c3)nc2)cc1` [Example 44, N-(2-{2-[4-(4-Isopropoxybenzyl)piperazine-1-carbonyl]-1-methyl-1H-indol-6-yloxy}pyrimidin-5-yl)-4,N-dimethylbenzenesulfonamide] returned a melting point of 154.3 to 155.1 °C.

As to `CC(C)Oc1ccc(CN2CCN(C(=O)c3cc4ccc(Oc5ncc(N(C)S(C)(=O)=O)cn5)cc4n3C)CC2)cc1` [Example 45, N-(2-{2-[4-(4-Isopropoxybenzyl)piperazine-1-carbonyl]-1-methyl-1H-indol-6-yloxy}pyrimidin-5-yl)-N-methylmethanesulfonamide], the melting point fell in the range of 134.3 to 135.6 °C. With `Br.Cc1cc(Oc2ccc3cc(C(=O)N4CCN(Cc5ccc(OCC(F)(F)F)cc5)CC4)n(C)c3c2)ncc1NC(=O)c1ccc(C(F)(F)F)cc1` [Example 46, N-[4-Methyl-6-(1-methyl-2-{4-[4-(2,2,2-trifluoroethoxy)benzyl]-piperazine-1-carbonyl}-1H-indol-6-yloxy)pyridin-3-yl]-4-tri-fluoromethylbenzamide hydrobromide], the melting point lay within 222.4 to 224.6 °C. Under `Br.Cc1cc(Oc2ccc3cc(C(=O)N4CCN(Cc5ccc(OCC(F)(F)F)cc5)CC4)n(C)c3c2)ncc1N(C)C(=O)c1ccc(C(F)(F)F)cc1` [Example 47, N-Methyl-N-[4-methyl-6-(1-methyl-2-{4-[4-(2,2,2-trifluoroethoxy)-benzyl]piperazine-1-carbonyl}-1H-indol-6-yloxy)pyridin-3-yl]-4-trifluoromethylbenzamide hydrobromide] stands 220 to 222.5 °C. On to `O=C(CN1CCc2cc(Oc3ccc(NS(=O)(=O)c4ccc(Cl)c(Cl)c4)cn3)ccc21)N1CCN(Cc2ccc3c(c2)OCO3)CC1` [Example 64, N-(6-{1-[2-(4-Benzo[1,3]dioxol-5-ylmethylpiperazin-1-yl)-2-oxo-ethyl]-2,3-dihydro-1H-indol-5-yloxy}pyridin-3-yl)-3,4-dichloro-benzenesulfonamide], for which the melting point lay in the range of 152 to 153 °C. With `Br.Cn1c(C(=O)N2CCN(Cc3ccc4c(c3)OCO4)CC2)cc2cc(Oc3ccc(NS(=O)(=O)c4ccc(C(F)(F)F)cc4)cn3)ccc21` [Example 65, N-{6-[2-(4-Benzo[1,3]dioxol-5-ylmethylpiperazine-1-carbonyl)-1-methyl-1H-indol-5-yloxy]pyridin-3-yl}-4-trifluoromethylbenzene-sulfonamide hydrobromide], the melting point lay in the range of 210 to 212 °C.
